Source: PMC8453745, “Human Mass Balance and Metabolite Profiling of [^14C]‐Pamiparib, a Poly (ADP‐Ribose) Polymerase Inhibitor, in Patients With Advanced Cancer” (Clinical Pharmacology in Drug Development, 2021)

What was measured:
[1] = unchanged pamiparib in urine and renal clearance (LC‐MS/MS); type: in vivo, human
Experimental: Total radioactivity was analyzed at Covance Laboratories (Harrogate, North Yorkshire, UK), and metabolite profiling was conducted at Covance Laboratories (Madison, Wisconsin). Determination of pamiparib concentrations in plasma and total radioactivity in plasma and whole blood was performed predose and 0.25, 0.5, 1, 1.5, 2, 2.5, 3, 6, 12, 24, 48, 72, 96, 120, and 144 hours postdose. Pamiparib concentrations in plasma and urine were determined at Covance Laboratories (Salt Lake City, Utah) with validated liquid chromatography‐tandem mass spectrometry (LC‐MS/MS) methods.
An aliquot of human plasma (25 μL) containing dipotassium ethylenediaminetetraacetic acid as anticoagulant or urine (25 μL) was added with the internal standard (20.0 μL of 400 ng/mL BGB‐326) in water:ACN (50:50 v/v) followed by the addition of water:ACN (50:50 v/v, 20.0 μL). […]
Standard PK parameters of pamiparib in plasma as well as total radioactivity in blood and plasma were calculated with noncompartmental methods with Phoenix WinNonlin (version 8.1). Area under the concentration‐time curve (AUC) from time 0 to infinity (AUC0‐∞), AUC from time 0 to last quantifiable concentration (AUC0‐t), Cmax, time postdose at Cmax (tmax), t1/2, and apparent total clearance (CL/F) were calculated. Renal clearance (CLR) was calculated as Ae/AUC, where Ae was the amount of drug excreted in urine.

CYP3A = assay: CYP450 phenotyping in HLMs with CYP3A inhibitor ketoconazole; type: in vitro ADME, human; conditions: 90‐minute HLM incubation with CYP3A4 inhibitor ketoconazole (1 μM)
Experimental: Metabolic stability in human liver microsomes (HLMs) and cytochrome P450 (CYP450) phenotyping assays were conducted in 3D BioOptima (Suzhou, China) using validated methodology, [13] to determine the intrinsic clearance and enzymes responsible for metabolism of pamiparib. HLMs for microsome stability was from BD Biosciences (Woburn, New York). For phenotyping, HLMs and recombinant P450 (rCYP) were from Corning (Woburn, New York). Pamiparib (1 μM) was incubated with pooled HLM (0.5 mg/mL), NADPH (1 mM), and MgCl2 (3 mM) terminated at 0, 5, 15, 30, 60, and 90 minutes. The intrinsic clearance was calculated as 0.693/(t1/2 × HLM concentration), where t1/2 is the half‐life of pamiparib determined in HLMs. For phenotyping in HLMs, pamiparib (1 μM) was incubated in the absence or presence of isoform‐selective inhibitors: 0.2 μM α‐naphthoflavone for CYP1A2, 2 μM clopidogrel for CYP2B6, 16 μM montelukast for CYP2C8, 10 μM sulfaphenazole for CYP2C9, 30 μM nootkatone for CYP2C19, 2 μM quinidine for CYP2D6, and 1 μM ketoconazole for CYP3A. The following isoform‐selective probe substrates served as positive controls: 40 μM phenacetin for CYP1A2, 100 μM bupropion for CYP2B6, 2 μM amodiaquine for CYP2C8, 5 μM diclofenac for CYP2C9, 40 μM S‐mephenytoin for CYP2C19, 5 μM dextromethorphan for CYP2D6, and 2 μM midazolam for CYP3A4. […] Pamiparib, M1, and M2 were analyzed by LC‐MS/MS.

[2] = safety and tolerability in patients; type: in vivo, human
Experimental: Safety and tolerability were evaluated throughout the study, and AEs were assessed from the time of obtaining informed consent to discharge from the study and follow‐up visit or early withdrawal. Scheduled safety assessments of 12‐lead electrocardiogram, physical examination, vital signs, and clinical laboratory investigations (clinical chemistry, hematology, serology, and urinalysis) occurred before administration of the study drug and at discharge and follow‐up visit.

[3] = tested on: Chinese hamster ovary cells; parameters: method as in data on file; conditions: in vitro chromosomal aberration assay, CHO cells; ref data on file; cited from earlier work

SMILES: C[C@]12CCCN1CC1=NNC(=O)c3cc(F)cc4[nH]c2c1c34 [Pamiparib]
- cumulative percent of pamiparib excreted unchanged in urine, geometric mean ([1]; LC‐MS/MS, over the 192‐hour study): ≈ 1.7 % of the administered dose
- CL renal ([1]; human, urine and plasma, oral, 60 mg, calculated as Ae/AUC, read-out: renal clearance, geometric mean (converted)): 0.623 mL/min
- pamiparib remaining (CYP3A): 63.1%
- patients with TEAEs ([2]; 4 patients): 100%
- severity of all TEAEs ([2]; 4 patients): mild (CTCAE grade 1)
- TEAEs considered related to [^14C]‐pamiparib, percent of events ([2]; in 2 patients): 31.3%
- TEAEs considered unrelated to [^14C]‐pamiparib, percent of events ([2]; in 4 patients): 68.8%
- TEAEs reported (events) ([2]; in 4 patients): 16
- tolerability ([2]; single dose 60 mg [^14C]‐pamiparib, 4 patients): well tolerated
- deaths or serious AEs ([2]; single dose 60 mg, 4 patients): no deaths or serious AEs
- clastogenic activity [3]: clastogenic activity
